# Values of other authors, collected in patent US20130022829A1, “OIL BORNE WOOD PRESERVING COMPOSITION FOR TREATMENT OF POLES, POSTS, PILING, CROSSTIES AND OTHER WOODED STRUCTURES” (Osmose, Inc., priority 2009, published 2013).
# Tested on: Poria
# Settings: background statement on copper soaps
compound,measurement,value
Cu-naphthenate,"efficacy against copper tolerant fungi, e.g., Poria sp.",insufficient efficacy
CCCCC(CC)C(=O)[O-].CCCCC(CC)C(=O)[O-].[Cu+2] (centres unmarked) [Cu-octoate],"efficacy against copper tolerant fungi, e.g., Poria sp.",insufficient efficacy
